Reference: patent publication US7560466B2, “Methods of treating or preventing autoimmune diseases with 2,4-pyrimidinediamine compounds” (Rigel Pharmaceuticals, Inc., priority 2003, dated 2009)
Like-named read-outs stand apart in the source and are kept apart here.

Tests used:
[1] = test system: cultured human mast cells (CHMC), IgE-induced degranulation; experiment: CHMC low cell density IgE activation: tryptase assay; assay type: cell-based
Outline: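 Tryptase release read fluorogenically (30 min, room temperature) from supernatants of anti-IgE-challenged cultured human mucosal mast cells derived from umbilical cord CD34+ cells, at low density of 1000–1500 cells/well.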

[2] = test system: cultured human mast cells (CHMC), ionomycin-induced degranulation; experiment: CHMC low cell density ionomycin activation: tryptase assay; assay type: cell-based; settings: ionomycin activation, 3pt, read-out: LD Tryptase, CHMC, Iono, 3pt
[3] = low cell density CHMC, 3pt, read-out: LD Tryptase, CHMC, IgE, 3pt
[4] = low cell density CHMC, 8pt, read-out: LD Tryptase, CHMC, IgE, 8pt
[5] = CHMC low cell density, 3pt, read-out: LD Tryptase, CHMC, IgE, 3pt
[6] = CHMC low cell density, 8pt, read-out: LD Tryptase, CHMC, IgE, 8pt

Structure (SMILES): Fc1cnc(Nc2ccc(-c3cnco3)cc2)nc1Nc1ccc2c(c1)NCCO2 [Compound 222, N4-(3,4-Dihydro-2H,4H-Benz[1,4]oxazin-6-yl)-5-fluoro-N2-[4-(oxazol-5-yl)phenyl]-2,4-pyrimidinediamine]
- IC50 [1, 3]: < 10 µM
- IC50 [1, 4]: < 10 µM
- IC50 ([2]; low cell density CHMC): > 10 µM

Structure (SMILES): CC1(C)COc2ccc(Nc3nc(Nc4ccc(-c5cnco5)cc4)ncc3F)cc2N1 [Compound 223, N4-(3,4-Dihydro-3,3-dimethyl-2H,4H-benz[1,4]oxazin-6-yl)-5-fluoro-N2-[4-(oxazol-5-yl)phenyl]-2,4-pyrimidinediamine]
- IC50 [1, 3]: < 10 µM
- IC50 [1, 4]: < 10 µM
- IC50 ([2]; low cell density CHMC): > 10 µM

Structure (SMILES): C[C@@H]1Oc2ccc(Nc3nc(Nc4ccc(-c5cnco5)cc4)ncc3F)cc2NC1=O [Compound 225]
- IC50 [1, 3]: < 10 µM
- IC50 [1, 4]: < 10 µM
- IC50 ([2]; low cell density CHMC): > 10 µM

Structure (SMILES): Fc1cnc(Nc2cccc(-c3cnco3)c2)nc1Nc1ccc2c(c1)NCCO2 [Compound 232, N4-(3,4-Dihydro-2H,4H-benz[1,4]oxazin-6-yl)-5-fluoro-N2-[3-(oxazol-5-yl)phenyl]-2,4-pyrimidinediamine]
- IC50 [1, 3]: < 10 µM
- IC50 [1, 4]: < 10 µM
- IC50 ([2]; low cell density CHMC): > 10 µM

Structure (SMILES): CC1(C)COc2ccc(Nc3nc(Nc4cccc(-c5cnco5)c4)ncc3F)cc2N1 [Compound 233, N4-(3,4-Dihydro-3,3-dimethyl-2H,4H-benz[1,4]oxazin-6-yl)-5-fluoro-N2-[3-(oxazol-5-yl)phenyl]-2,4-pyrimidinediamine]
- IC50 [1, 3]: < 10 µM
- IC50 [1, 4]: < 10 µM
- IC50 ([2]; low cell density CHMC): > 10 µM

Structure (SMILES): CC1(C)COc2ccc(Nc3nc(Nc4ccc(-c5ncco5)cc4)ncc3F)cc2N1 [Compound 238, N4-(3,4-Dihydro-3,3-dimethyl-2H,4H-benz[1,4]oxazin-6-yl)-5-fluoro-N2-[4-(oxazol-2-yl)phenyl]-2,4-pyrimidinediamine]
- IC50 [1, 3]: < 10 µM
- IC50 [1, 4]: < 10 µM
- IC50 ([2]; low cell density CHMC): > 10 µM

Structure (SMILES): CN1CCOc2ccc(Nc3nc(Nc4ccc(-c5ncco5)cc4)ncc3F)cc21 [Compound 243, N4-(2,3-Dihydro-4-methyl-2H-benz[1,4]oxazin-6-yl)-5-fluoro-N2-[4-(oxazol-2-yl)phenyl]-2,4-pyrimidinediamine]
- IC50 [1, 3]: < 10 µM
- IC50 [1, 4]: < 10 µM
- IC50 ([2]; low cell density CHMC): > 10 µM

Structure (SMILES): COc1cc(Nc2ncc(F)c(Nc3ccc4c(c3)NCC(CCO)O4)n2)cc(OC)c1 (centres unmarked) [Compound 253, N4-[3,4-Dihydro-2-(2-hydroxyethyl)-2H,4H-benz[1,4]oxazin-6-yl]-N2-(3,5-dimethoxyphenyl)-5-fluoro-2,4-pyrimidinediamine]
- IC50 [1, 3]: < 10 µM
- IC50 [1, 4]: < 10 µM
- IC50 ([2]; low cell density CHMC): > 10 µM

Structure (SMILES): CNC(=O)COc1cccc(Nc2ncc(F)c(Nc3ccc4c(c3)NC(=O)CS4)n2)c1 [Compound 254, 5-Fluoro-N2-[3-(N-methylamino)carbonylmethyleneoxyphenyl]-N4-(3-oxo-2H,4H-benzo[1,4]thiazin-6-yl)-2,4-pyrimidinediamine]
- IC50 [1, 3]: < 10 µM
- IC50 [1, 4]: < 10 µM
- IC50 ([2]; low cell density CHMC): > 10 µM

Structure (SMILES): Cc1cc(C)cc(Nc2ncc(F)c(Nc3ccc4c(c3)NCC(CCO)O4)n2)c1 (centres unmarked) [Compound 255, N4-[2,3-Dihydro-2-(2-hydroxyethyl)-2H,4H-benz[1,4]oxazin-6-yl]-N2-(3,5-dimethylphenyl)-5-fluoro-2,4-pyrimidinediamine]
- IC50 [1, 3]: < 10 µM
- IC50 [1, 4]: < 10 µM
- IC50 ([2]; low cell density CHMC): > 10 µM

Structure (SMILES): CNC(=O)COc1cccc(Nc2ncc(F)c(Nc3ccc4c(c3)NCCS4)n2)c1 [Compound 258, N4-(3,4-Dihydro-2H,4H-benzo[1,4]thiazin-6-yl)-5-fluoro-N2-[3-(N-methylamino)carbonylmethyleneoxyphenyl]-2,4-pyrimidinediamine]
- IC50 [1, 3]: < 10 µM
- IC50 [1, 4]: < 10 µM
- IC50 ([2]; low cell density CHMC): > 10 µM

Structure (SMILES): CNC(=O)COc1cccc(Nc2ncc(F)c(Nc3ccc4c(c3)N(C)C(=O)CS4)n2)c1 [Compound 259, 5-Fluoro-N2-[3-(N-methylamino)carbonylmethyleneoxyphenyl]-N4-(4-methyl-3-oxo-2H-benzo[1,4]thiazin-6-yl)-2,4-pyrimidinediamine]
- IC50 [1, 3]: < 10 µM
- IC50 [1, 4]: < 10 µM
- IC50 ([2]; low cell density CHMC): > 10 µM

Structure (SMILES): NC(=S)c1cccc(Nc2ncc(F)c(Nc3ccc4c(c3)NC(=O)CO4)n2)c1 [Compound 261, N2-(3-Benzothioamide)-5-fluoro-N4-(3-oxo-2H,4H-benz[1,4]oxazin-6-yl)-2,4-pyrimidinediamine]
- IC50 [1, 3]: < 10 µM
- IC50 ([2]; low cell density CHMC): > 10 µM

Structure (SMILES): NC(=S)c1cccc(Nc2ncc(F)c(Nc3ccc4c(c3)NC(=O)C(CCO)O4)n2)c1 (centres unmarked) [Compound 262, N2-(3-Benzothioamide)-5-fluoro-N4-[2-(2-hydroxyethyl)-3-oxo-2H,4H-benz[1,4]oxazin-6-yl]-2,4-pyrimidinediamine]
- IC50 [1, 3]: < 10 µM
- IC50 ([2]; low cell density CHMC): > 10 µM

Structure (SMILES): CNC(=O)COc1cccc(Nc2ncc(F)c(N(C)c3ccc4c(c3)OCCO4)n2)c1 [Compound 385, N4-(3,4-Ethylenedioxyphenyl)-5-fluoro-N4-methyl-N2-[3-(N-methylamino)carbonylmethyleneoxyphenyl]-2,4-pyrimidinediamine]
- IC50 [1, 5]: < 10 µM
- IC50 [1, 6]: < 10 µM
- IC50 ([2]; CHMC low cell density): > 10 µM

Structure (SMILES): CC(=O)N1CCN(c2cccc(Nc3ncc(F)c(Nc4ccc5c(c4)OC(F)(F)C(F)(F)O5)n3)c2)CC1 [Compound 431]
- IC50 [1, 5]: < 10 µM
- IC50 [1, 6]: < 10 µM
- IC50 ([2]; CHMC low cell density): > 10 µM

Structure (SMILES): CC(=O)N1CCN(c2ccc(Nc3ncc(F)c(Nc4ccc5c(c4)OC(F)(F)C(F)(F)O5)n3)cc2)CC1 [Compound 432]
- IC50 [1, 5]: < 10 µM
- IC50 ([2]; CHMC low cell density): > 10 µM

Structure (SMILES): CNC(=O)COc1cccc(Nc2ncc(F)c(N(CC(=O)OC)c3ccc4c(c3)OCCO4)n2)c1 [Compound 446, N4-(3,4-Ethylenedioxyphenyl)-5-fluoro-N4-(methoxycarbonylmethyl)-N2-[3-(N-methylamino)carbonylmethyleneoxyphenyl]-2,4-pyrimidinediamine]
- IC50 [1, 5]: < 10 µM
- IC50 ([2]; CHMC low cell density): > 10 µM

Structure (SMILES): CNC(=O)c1cc(Nc2ncc(F)c(N(C)c3ccc4c(c3)OCCO4)n2)ccc1Cl [Compound 453, N2-[4-Chloro-3-(N-methylamino)carbonylphenyl]-N4-(3,4-ethylenedioxyphenyl)-5-fluoro-N4-methyl-4-pyrimidinediamine]
- IC50 [1, 5]: < 10 µM
- IC50 ([2]; CHMC low cell density): > 10 µM

Structure (SMILES): CN(C)c1ncc(F)c(N(C)c2ccc3c(c2)OCCO3)n1 [Compound 462, N2-Dimethyl-N4-(3,4-ethylenedioxyphenyl)-5-fluoro-N4-methyl-2,4-pyrimidinediamine]
- IC50 [1, 5]: > 10 µM
- IC50 ([2]; CHMC low cell density): > 10 µM

Structure (SMILES): CNS(=O)(=O)c1ccc(Nc2ncc(F)c(Nc3ccc4c(c3)NC(=O)C(C)(C)O4)n2)cc1OC [Compound 496, N4-(2,2-Dimethyl-3-oxo-4H-benz[1,4]oxazin-6-yl)-5-fluoro-N2-[3-methoxyphenyl-4-(methylamino)sulfonyl]-2,4-pyrimidinediamine]
- IC50 [1, 5]: < 10 µM
- IC50 [1, 6]: < 10 µM
- IC50 ([2]; CHMC low cell density): < 10 µM

Structure (SMILES): CNC(=O)COc1c(C)cc(Nc2ncc(F)c(N(C)c3ccc4c(c3)OCCO4)n2)cc1C [Compound 635, N2-[3,5-Dimethyl-4-(N-methylamino)carbonylmethyleneoxyphenyl]-N4-(3,4-ethylenedioxyphenyl)-5-fluoro-N4-methyl-2,4-pyrimidinediamine]
- IC50 [1, 5]: < 10 µM
- IC50 [1, 6]: < 10 µM
- IC50 ([2]; CHMC low cell density): < 10 µM

Structure (SMILES): CNC(=O)COc1c(C)cc(Nc2ncc(F)c(N(C)c3ccc4c(c3)OC(F)(F)C(F)(F)O4)n2)cc1C [Compound 636, N2-[3,5-Dimethyl-4-(N-methylamino)carbonylmethyleneoxyphenyl]-5-fluoro-N4-methyl-N4-[3,4-(tetrafluoroethylenedioxy)phenyl]-2,4-pyrimidinediamine]
- IC50 [1, 5]: < 10 µM
- IC50 [1, 6]: < 10 µM
- IC50 ([2]; CHMC low cell density): < 10 µM

Structure (SMILES): CNC(=O)COc1c(C)cc(Nc2ncc(F)c(Nc3ccc4c(c3)OC(F)(F)C(F)(F)O4)n2)cc1C [Compound 637, N2-[3,5-Dimethyl-4-(N-methylamino)carbonylmethyleneoxyphenyl]-5-fluoro-N4-[3,4-(tetrafluoroethylenedioxy)phenyl]-2,4-pyrimidinediamine]
- IC50 [1, 5]: < 10 µM
- IC50 ([2]; CHMC low cell density): > 10 µM

Structure (SMILES): COC(=O)Cn1ccc2ccc(Nc3ncc(F)c(Nc4ccc5c(c4)NC(=O)C(C)(C)O5)n3)cc21 [Compound 639, N4-(2,2-Dimethyl-3-oxo-4H-benz[1,4]oxazin-6-yl)-5-fluoro-N2-[1-(methoxycarbonylmethylene)indol-6-yl]-2,4-pyrimidinediamine]
- IC50 [1, 5]: < 10 µM
- IC50 [1, 6]: < 10 µM
- IC50 ([2]; CHMC low cell density): > 10 µM

Structure (SMILES): COC(=O)Cn1ccc2ccc(Nc3ncc(F)c(Nc4ccc5c(c4)OCCO5)n3)cc21 [Compound 642, N4-(3,4-Ethylenedioxyphenyl)-5-fluoro-N2-[1-(methoxycarbonylmethylene)indol-6-yl]-2,4-pyrimidinediamine]
- IC50 [1, 5]: < 10 µM
- IC50 [1, 6]: < 10 µM
- IC50 ([2]; CHMC low cell density): > 10 µM

Structure (SMILES): COC(=O)Cn1ccc2cc(Nc3ncc(F)c(Nc4ccc5c(c4)NC(=O)C(C)(C)O5)n3)ccc21 [Compound 643, N4-(2,2-Dimethyl-3-oxo-4H-benz[1,4]oxazin-6-yl)-5-fluoro-N2-[1-(methoxycarbonylmethylene)indol-5-yl]-2,4-pyrimidinediamine]
- IC50 [1, 5]: < 10 µM
- IC50 [1, 6]: < 10 µM
- IC50 ([2]; CHMC low cell density): > 10 µM

Structure (SMILES): COC(=O)Cn1ccc2cc(Nc3ncc(F)c(Nc4ccc5c(c4)OCCO5)n3)ccc21 [Compound 647, N4-(3,4-Ethylenedioxyphenyl)-5-fluoro-N2-[1-(methoxycarbonylmethylene)indol-5-yl]-2,4-pyrimidinediamine]
- IC50 [1, 5]: < 10 µM
- IC50 [1, 6]: < 10 µM
- IC50 ([2]; CHMC low cell density): > 10 µM

Structure (SMILES): CNC(=O)Cn1ccc2ccc(Nc3ncc(F)c(Nc4ccc5c(c4)OCCO5)n3)cc21 [Compound 649, N4-(3,4-Ethylenedioxyphenyl)-5-fluoro-N2-[1-(N-methylamino)carbonylmethyleneindol-6-yl]-2,4-pyrimidinediamine]
- IC50 [1, 5]: < 10 µM
- IC50 [1, 6]: < 10 µM
- IC50 ([2]; CHMC low cell density): > 10 µM
